Results as given in article PMC5543150, “Antimalarial troponoids, puberulic acid and viticolins; divergent synthesis and structure-activity relationship studies” (Scientific Reports, 2017).
Converted amounts (≈) assume the structure as drawn. Read-outs that look alike come from different tables or passages of the source.

Key:
P. berghei = system: P. berghei; design: method as in PMID 21063422, PMID 24713875; conditions: 2 mg/kg × 4, subcutaneous (s.c.), 4-day suppressive test; cited from earlier work
[1] = Cytotoxic assay against MRC-5 cells; conditions: human
Experimental: Measurement of cytotoxicity against human fetal lung fibroblast MRC-5 cells was carried out as described previously.
3. […]
(§1) 3-2. Cytotoxic assay against MRC-5 cells
Measurement of cytotoxicity against human fetal lung fibroblast MRC-5 cells
was carried out as described previously4). […]
4) K. Otoguro, H. Ui, A. Ishiyama, N. Arai, M. Kobayashi, Y. Takahashi, R. Masuma,
K. Shiomi, H. Yamada, S. Ōmura, J. Antibiot.

[2] = system: Plasmodium falciparum K1 (chloroquine-resistant) parasite strain; conditions: natural products and simple troponoids, previously reported, cited from earlier work; for IC50 Antimalarial activity (K1 strain) / Selectivity index MRC-5/K1: Table S1; for IC50: read-out: IC50, antimalarial activity against Plasmodium falciparum K1 strain
[3] = design: method as in PMID 21063422, PMID 24713875; conditions: s.c. dose of 5 mg/kg × 2 (day 0 and 1), by day 3; cited from earlier work
[4] = system: human fetal lung fibroblast MRC-5 cells; design: method as in earlier work; conditions: Table S1; natural products and simple troponoids, previously reported; cited from earlier work
[5] = system: Plasmodium falciparum K1 (chloroquine-resistant) parasite strain; test: In vitro antimalarial assay (p-LDH, 72 h) against Plasmodium falciparum K1 strain; assay type: cell-based; conditions: for IC50: Plasmodium falciparum; for fold better IC50 than those of 7 and 37: relative to 7 and 37
Experimental: Briefly, the P. falciparum K1 strain was cultured in human erythrocytes in RPMI medium supplemented with 10% human plasma at 37 °C, under 93% N2, 4% CO2, and 3% O2. Asynchronous parasites (2% hematocrit and 0.5 or 1% parasitaemia) were seeded in a 96-well microtiter plate and serially diluted test compounds were added. […] After 72-hours incubation, parasite lactate dehydrogenase (p-LDH) was assayed using a slight modification of the procedure reported by Makler et al.[31] and Vivas et al.[32]. The 50% inhibitory concentration (IC50) value was calculated from a dose response curve. This study was approved by “Kitasato Institute Hospital Research Ethics Committee (No12102)” using human erythrocytes donated by volunteers.
3. Biological evaluation of synthesized derivatives
3-1. In vitro cultivation of Plasmodium falciparum and the antimalarial assay In vitro cultivation and antimalarial activity against the Plasmodium falciparum […]
previously1). Briefly, the P. falciparum K1 strain was cultured in human erythrocytes in RPMI medium supplemented with 10% human plasma at 37 °C, under 93% N2, 4% CO2, and 3% O2. Asynchronous parasites (2% hematocrit and 0.5 or 1% parasitaemia) were seeded in a 96-well microtiter plate and serially diluted test compounds were added.
After 72-hours incubation, parasite lactate dehydrogenase (p-LDH) was assayed using a slight modification of the procedure reported by Makler et al2) and Vivas et al3). The 50% inhibitory concentration (IC50) value was calculated from a dose response curve.
This study was approved by “Kitasato Institute Hospital Research Ethics Committee (No12102)” using human erythrocytes donated by volunteers.
as §1
Measurement of cytotoxicity against human fetal lung fibroblast MRC-5 cells was carried out as described previously4).
1) K. Otoguro, A. Kohana, C. Manabe, A. Ishiyama, H. Ui, K. Shiomi, H. Yamada, S. […]
2) M. T. Makler, J. M. Ries, J. A. Williams, J. E. Bancroft, R. C. Piper, B. L. Gibbins, […]
D. J. Hinrichs, Am. J. Med. Hyg. 1993, 48, 739-741.
3) L. Vivas, A. Easton, H. Kendrick, A. Cameron, J.-L. Lavandera, D. Barros, F. G. de las Heras, R. L. Brady, S. L. Croft, Exper. Parasitol. 2005, 111, 105-114.
4) K. Otoguro, H. Ui, A. Ishiyama, N. Arai, M. Kobayashi, Y. Takahashi, R. Masuma, K. Shiomi, H. Yamada, S. Ōmura, J. Antibiot. 2003, 56, 322-324.

[6] = MRC-5 cells (fetal lung fibroblasts), IC50 Cytotoxicity (MRC-5), Table S1, synthesized compounds and positive controls
[7] = MRC-5 cells (fetal lung fibroblasts), IC50 Cytotoxicity (MRC-5), synthesized derivatives
[8] = K1, Table S1, synthesized compounds and positive controls, read-out: IC50 Antimalarial activity (K1 strain)
[9] = K1, synthesized derivatives, in vitro, read-out: IC50 Antimalarial activity (K1 strain)
[10] = Table S1, synthesized compounds and positive controls
[11] = MRC-5 cells (fetal lung fibroblasts), IC50 cytotoxicity (MRC-5)

| IC50 [5, 8] | IC50 [5, 9] | SMILES | IC50 [1, 6] | IC50 [1, 7] | IC50 Antimalarial activity (K1 strain) [2] | IC50 [2] | Selectivity index MRC-5/K1 [5, 10] | further results |
| --- | --- | --- | --- | --- | --- | --- | --- | --- |
| > 12.5 µg/mL | > 50000 nM | COc1c2c(cc(C(=O)O)cc1=O)OC(C)(C)O2 [Compound 27] | – | – | – | – | – | – |
| > 12.5 µg/mL | > 50000 nM | COc1cc(C(=O)O)cc2c(c1=O)OC(C)(C)O2 [Compound 28] | – | – | – | – | – | – |
| 0.073 µg/mL | 340 ± 22 nM | COc1cc(C(=O)O)cc(O)c(=O)c1O [Compound 29, Iso-viticolin A] | 11.8 µg/mL | 55800 nM | – | – | 162.33 | fold stronger activity than viticolin A (3) ([5]; K1 strain, relative to viticolin A (3)): approximately 100 fold |
| 0.728 µg/mL | 4330 ± 30 nM | O=c1c(O)ccc(CO)cc1O [Compound 37, 4-Hydroxymethyl-7-hydroxytropolone] | 0.00057 µg/mL | 3.4 nM | – | – | 0.0008 | IC50 [1, 11]: 3.39 nM; melting point: 144 °C (dec.) |
| 0.38 µg/mL | 2090 ± 27 nM | COCc1ccc(O)c(=O)c(O)c1 [Compound 38, 4-Methoxymethyl-7-hydroxytropolone] | 0.00024 µg/mL | 1.3 nM | – | – | 0.0006 | IC50 [1, 11]: 1.32 nM; fold better IC50 than those of 7 and 37 ([5]; K1 strain): approximately 2 fold |
| 0.387 µg/mL | 2120 ± 110 nM | O=C(O)c1ccc(O)c(=O)c(O)c1 [Compound 40, Iso-stipitatic acid] | 18.6 µg/mL | 102000 nM | – | – | 47.82 | fold better IC50 than those of 7 and 37 ([5]; K1 strain): approximately 2 fold |
| 0.038 µg/mL | 210 ± 3.3 nM | O=c1c(O)cc(CO)cc(O)c1O [Compound 42, 4-Hydroxymethyl-6,7-dihydroxytropolone] | 0.00435 µg/mL | 24 nM | – | – | 0.115 | melting point: 162 °C |
| 0.044 µg/mL | 220 ± 1.6 nM | COCc1cc(O)c(O)c(=O)c(O)c1 [Compound 43, 4-Methoxymethyl-6,7-dihydroxytropolone] | 0.00181 µg/mL | 91 nM | – | – | 0.041 | melting point: 120 °C |
| 0.096 µg/mL | 460 ± 53 nM | [N-]=[N+]=NCc1cc(O)c(O)c(=O)c(O)c1 [Compound 44, 4-Azidomethyl-6,7-dihydroxytropolone] | 0.00073 µg/mL | 3.5 nM | – | – | – | – |
| 0.0057 µg/mL | – | C[C@@H]1CC[C@H]2[C@@H](C)C(=O)O[C@@H]3O[C@@]4(C)CC[C@@H]1[C@]32OO4 [artemisinin, reference compound] | – | – | – | – | 7.925 | IC50 ([1]; IC50 Cytotoxicity (MRC-5)): 45.2 µg/mL |

The remaining lines, values behind:

| SMILES | IC50 [5, 8] | IC50 [5, 9] | IC50 [1, 6] | IC50 [1, 7] | IC50 Antimalarial activity (K1 strain) [2] | IC50 [2] | Selectivity index MRC-5/K1 [5, 10] | further results |
| --- | --- | --- | --- | --- | --- | --- | --- | --- |
| O=C(O)c1cc(O)c(O)c(=O)c(O)c1 [Compound 1, puberulic acid] | 0.0087 µg/mL | 44 ± 2.9 nM | 4.18 µg/mL | 289000 nM | 0.01 µg/mL (≈ 0.0505 µM) | 0.05 µM | 480.46 | in vivo efficacy, inhibition (P. berghei): 69%; Selectivity index MRC-5/K1 [2]: 5720; toxicity in vivo, mice dying [3]: four out of five; IC50 Cytotoxicity (MRC-5) [4]: 57.20 µg/mL (≈ 289 µM) |
| O=C(O)c1cc(O)cc(=O)c(O)c1 [Compound 2, stipitatic acid] | – | – | – | – | 7.07 µg/mL (≈ 38.8 µM) | – | – | Selectivity index MRC-5/K1 [2]: > 14; IC50 Cytotoxicity (MRC-5) [4]: > 100 µg/mL |
| COc1c(O)cc(C(=O)O)cc(O)c1=O [Compound 3, viticolin A] | – | – | – | – | 9.92 µg/mL (≈ 46.8 µM) | 46.8 µM | – | melting point: 227 °C; Selectivity index MRC-5/K1 [2]: > 10; IC50 Cytotoxicity (MRC-5) [4]: > 100 µg/mL |
| COc1cc(C(=O)O)cc(O)c(OC)c1=O [Compound 4, viticolin B] | – | – | – | – | 0.84 µg/mL (≈ 3.71 µM) | 3.71 µM | – | Selectivity index MRC-5/K1 [2]: 8.08; IC50 Cytotoxicity (MRC-5) [4]: 6.79 µg/mL (≈ 30 µM) |
| O=c1cccccc1 [Compound 5, tropone, reference compound] | – | – | – | – | > 12.50 µg/mL | > 118 µM | – | – |
| O=c1cccccc1O [Compound 6, tropolone, reference compound] | – | – | – | – | 2.74 µg/mL (≈ 22.4 µM) | 22.4 µM | – | – |
| O=c1c(O)ccccc1O [Compound 7, 7-hydroxytropolone, reference compound] | – | – | – | – | 0.89 µg/mL (≈ 6.44 µM) | 6.44 µM | – | Selectivity index MRC-5/K1 [2]: 0.27; IC50 Cytotoxicity (MRC-5) [4]: 0.24 µg/mL (≈ 1.74 µM); fold stronger IC50 value than that of 5 ([5]; K1 strain, relative to tropone (5)): > 18 fold |
| CC(C)c1cccc(=O)c(O)c1 [Compound 8, hinokitiol, reference compound] | – | – | – | – | 4.92 µg/mL (≈ 30 µM) | 30 µM | – | Selectivity index MRC-5/K1 [2]: 1.20; IC50 Cytotoxicity (MRC-5) [4]: 5.80 µg/mL (≈ 35.3 µM) |
| CC1(C)Oc2cc(C=O)cc(O)c(=O)c2O1 [Compound 23] | > 12.5 µg/mL | > 56000 nM | – | – | – | – | – | – |
| CC1(C)Oc2cc(C(=O)O)cc(O)c(=O)c2O1 [Compound 24] | > 12.5 µg/mL | > 50000 nM | – | – | – | – | – | – |
| COC(=O)c1cc2c(c(OC)c(=O)c1)OC(C)(C)O2 [Compound 25] | > 12.5 µg/mL | > 47000 nM | – | – | – | – | – | – |
| COC(=O)c1cc2c(c(=O)c(OC)c1)OC(C)(C)O2 [Compound 26] | > 12.5 µg/mL | > 47000 nM | – | – | – | – | – | – |
| CCN(CC)CCCC(C)Nc1ccnc2cc(Cl)ccc12 (centres unmarked) [chloroquine, reference compound] | – | – | – | – | – | – | – | IC50 [1]: 18.6 µg/mL; IC50 ([5]; K1, read-out: IC50 Antimalarial activity (K1 strain)): 0.18 µg/mL |
